# Values quoted from earlier work in patent US5270047A, “Local delivery of dipyridamole for the treatment of proliferative diseases” (priority 1991, dated 1993).
# System: vascular restenosis
# Details: current pharmacologic therapies after PTCA, atherectomy, laser angioplasty, bypass graft surgery; cited from earlier work
row,Molecule,effect for the treatment and prevention of vascular restenosis
1,CC(=O)Oc1ccccc1C(=O)O [aspirin],ineffective for the treatment and prevention of vascular restenosis
2,O=c1ccc2ccccc2o1 [coumarin],ineffective for the treatment and prevention of vascular restenosis
3,CCCCC[C@H](O)/C=C/[C@@H]1[C@H]2C/C(=C/CCCC(=O)O)O[C@H]2C[C@H]1O [prostacyclin],ineffective for the treatment and prevention of vascular restenosis
4,heparin,ineffective for the treatment and prevention of vascular restenosis
5,low molecular weight heparin,ineffective for the treatment and prevention of vascular restenosis
